SMILES strings stand for the structures. Values after ≈ are worked out from the molar mass of the structure shown.

What all share (assay type): functional
Assay [1] relates to Staphylococcus aureus. Description: Anti-bacterial activity against methicillin-resistant Staphylococcus aureus N315 assessed as inhibition of bacterial growth. Particulars: Staphylococcus aureus, N315; read-out: MIC.
Assay [2] deals with Staphylococcus aureus. Description: Anti-bacterial activity against methicillin-resistant Staphylococcus aureus ATCC 43300 assessed as inhibition of bacterial growth. Particulars: Staphylococcus aureus, ATCC 43300; read-out: MIC.
A further assay has as its system Enterococcus faecalis. Description: Anti-bacterial activity against Enterococcus faecalis V583 assessed as inhibition of bacterial growth.
The test system of another assay is Klebsiella pneumoniae. Description: Anti-bacterial activity against Klebsiella pneumoniae KPN325 assessed as inhibition of bacterial growth. Particulars: Klebsiella pneumoniae, KPN325; read-out: MIC.
In assay [3] the test system is Staphylococcus aureus. Description: Anti-bacterial activity against Staphylococcus aureus ATCC 1708 assessed as inhibition of bacterial growth. Particulars: Staphylococcus aureus, ATCC 1708; read-out: MIC.
In assay [4] the test system is Staphylococcus aureus. Description: Anti-bacterial activity against Staphylococcus aureus ATCC 25923 assessed as inhibition of bacterial growth. Particulars: Staphylococcus aureus, ATCC 25923; read-out: MIC.
Assay [5] relates to Staphylococcus aureus. Description: Anti-bacterial activity against Staphylococcus aureus ATCC 29213 assessed as inhibition of bacterial growth. Particulars: Staphylococcus aureus, ATCC 29213; read-out: MIC.
The subject of assay [6] is Staphylococcus aureus. Description: Anti-bacterial activity against Staphylococcus aureus ATCC 12600 assessed as inhibition of bacterial growth. Particulars: Staphylococcus aureus, ATCC 12600; read-out: MIC.
The subject of assay [7] is Staphylococcus aureus. Description: Anti-bacterial activity against Staphylococcus aureus ATCC 6538 assessed as inhibition of bacterial growth.
Assay [8] has as its system Staphylococcus aureus. Description: Anti-bacterial activity against Staphylococcus aureus CMCC (B) 26003 assessed as inhibition of bacterial growth.
Assay [9] deals with Staphylococcus aureus. Description: Anti-bacterial activity against Staphylococcus aureus CMCC (B) 26001 assessed as inhibition of bacterial growth.
Assay [10] relates to Escherichia coli. Description: Anti-bacterial activity against Escherichia coli JM109 assessed as inhibition of bacterial growth.
Assay [11] deals with Escherichia coli. Description: Anti-bacterial activity against Escherichia coli ATCC 25922 assessed as inhibition of bacterial growth.
Assay [12] has as its system Pseudomonas aeruginosa. Description: Anti-bacterial activity against Pseudomonas aeruginosa ST235 assessed as inhibition of bacterial growth. Particulars: Pseudomonas aeruginosa, ST235; read-out: MIC.
Assay [13] relates to Pseudomonas aeruginosa. Description: Anti-bacterial activity against Pseudomonas aeruginosa ATCC 27853 assessed as inhibition of bacterial growth. Particulars: Pseudomonas aeruginosa, ATCC 27853; read-out: MIC.
Assay [14] relates to Pseudomonas aeruginosa. Description: Anti-bacterial activity against Pseudomonas aeruginosa ATCC 15442 assessed as inhibition of bacterial growth. Particulars: Pseudomonas aeruginosa, ATCC 15442; read-out: MIC.
Assay [15] has as its system Pseudomonas aeruginosa. Description: Anti-bacterial activity against Pseudomonas aeruginosa ATCC 9027 assessed as inhibition of bacterial growth.
Assay [16] concerns Pseudomonas aeruginosa. Description: Anti-bacterial activity against Pseudomonas aeruginosa CMCC (B) 10104 assessed as inhibition of bacterial growth. Particulars: Pseudomonas aeruginosa, CMCC (B) 10104; read-out: MIC.
The test system of another assay is Acinetobacter baumannii. Description: Anti-bacterial activity against Acinetobacter baumannii R674 assessed as inhibition of bacterial growth.
Assay [17] relates to Candida albicans. Description: Anti-fungal activity against Candida albicans assessed as inhibition of fungal growth. Particulars: Candida albicans; read-out: MIC.
Assay [18] relates to Candida albicans. Description: Anti-fungal activity against Candida albicans 90023 assessed as inhibition of fungal growth.
The next assay relates to Candida tropicalis. Description: Anti-fungal activity against Candida tropicalis assessed as inhibition of fungal growth. Particulars: Candida tropicalis; read-out: MIC.
The next assay has as its system Candida parapsilosis. Description: Anti-fungal activity against Candida parapsilosis assessed as inhibition of fungal growth. Particulars: Lodderomyces parapsilosis; read-out: MIC.

For the molecule `CCOC(=O)C1=C(CN2CCNCC2)NC(=O)NC1c1ccc2c(c1)c1ccccc1n2CC` (configuration not stated), the minimal inhibitory concentration (MIC) (in general, the smallest concentration in the dilution series that meets the test's criterion for growth inhibition) in the assay with Staphylococcus aureus [1] was 222 µM (≈ 102 µg/mL); in the assay with Staphylococcus aureus [2], 111 µM (≈ 51.2 µg/mL); in the assay with Enterococcus faecalis, 28 µM (≈ 12.9 µg/mL); in the assay on Klebsiella pneumoniae it was 222 µM (≈ 102 µg/mL); in the assay with Staphylococcus aureus [3], 222 µM (≈ 102 µg/mL); in the assay on Staphylococcus aureus [4] it was 222 µM (≈ 102 µg/mL). Moreover, the MIC in the assay with Staphylococcus aureus [5] is 14 µM (≈ 6.46 µg/mL); with Staphylococcus aureus [6], 222 µM (≈ 102 µg/mL); with Staphylococcus aureus [7] it was 111 µM (≈ 51.2 µg/mL); in the assay on Staphylococcus aureus [8] it was 222 µM (≈ 102 µg/mL); in the assay with Staphylococcus aureus [9], 111 µM (≈ 51.2 µg/mL); in the assay on Escherichia coli [10], 222 µM (≈ 102 µg/mL). Moreover, the MIC worked out at 222 µM (≈ 102 µg/mL) in the assay with Escherichia coli [11]; 222 µM (≈ 102 µg/mL) with Pseudomonas aeruginosa [12]; 222 µM (≈ 102 µg/mL) with Pseudomonas aeruginosa [13]; 56 µM (≈ 25.8 µg/mL) in the assay with Pseudomonas aeruginosa [14]; 444 µM (≈ 205 µg/mL) in the assay on Pseudomonas aeruginosa [15]; 444 µM (≈ 205 µg/mL) with Pseudomonas aeruginosa [16]. The minimal inhibitory concentration (MIC) in the assay on Acinetobacter baumannii is 7 µM (≈ 3.23 µg/mL); with Candida albicans [17], 470 µM (≈ 217 µg/mL); in the assay with Candida albicans [18] it was 59 µM (≈ 27.2 µg/mL); with Candida tropicalis, 470 µM (≈ 217 µg/mL); with Candida parapsilosis, 470 µM (≈ 217 µg/mL).

As to `CCOC(=O)C1=C(CN2CCN(C(=O)/C(=N/OC)c3csc(N)n3)CC2)NC(=O)NC1c1cccc(O)c1` (configuration not stated), the MIC in the assay on Staphylococcus aureus [1] amounted to 118 µM (≈ 64.1 µg/mL); in the assay with Staphylococcus aureus [2], 59 µM (≈ 32.1 µg/mL); in the assay with Enterococcus faecalis it was 15 µM (≈ 8.15 µg/mL); in the assay on Klebsiella pneumoniae it was 59 µM (≈ 32.1 µg/mL); in the assay with Staphylococcus aureus [3], 118 µM (≈ 64.1 µg/mL); in the assay on Staphylococcus aureus [4], 118 µM (≈ 64.1 µg/mL). Moreover, the MIC was determined as 59 µM (≈ 32.1 µg/mL) with Staphylococcus aureus [5]; 15 µM (≈ 8.15 µg/mL) in the assay with Staphylococcus aureus [6]; 59 µM (≈ 32.1 µg/mL) in the assay with Staphylococcus aureus [7]; 236 µM (≈ 128 µg/mL) in the assay on Staphylococcus aureus [8]; 59 µM (≈ 32.1 µg/mL) in the assay on Staphylococcus aureus [9]; 59 µM (≈ 32.1 µg/mL) with Escherichia coli [10]. Also, the MIC in the assay on Escherichia coli [11] turned out to be 59 µM (≈ 32.1 µg/mL); with Pseudomonas aeruginosa [12] it was 59 µM (≈ 32.1 µg/mL); in the assay with Pseudomonas aeruginosa [13], 59 µM (≈ 32.1 µg/mL); with Pseudomonas aeruginosa [14], 59 µM (≈ 32.1 µg/mL); in the assay on Pseudomonas aeruginosa [15] it was 59 µM (≈ 32.1 µg/mL); with Pseudomonas aeruginosa [16], 117 µM (≈ 63.6 µg/mL). Also, the MIC in the assay on Acinetobacter baumannii amounted to 15 µM (≈ 8.15 µg/mL); in the assay with Candida albicans [17], 430 µM (≈ 234 µg/mL); in the assay on Candida albicans [18], 7 µM (≈ 3.81 µg/mL); in the assay on Candida tropicalis, 430 µM (≈ 234 µg/mL); in the assay on Candida parapsilosis it was 430 µM (≈ 234 µg/mL).

Take `CCOC(=O)C1=C(CN2CCN(C(=O)/C(=N/OC)c3csc(N)n3)CC2)NC(=O)NC1c1ccc(F)cc1F` (configuration not stated): the MIC with Staphylococcus aureus [1] amounted to 114 µM (≈ 64.2 µg/mL); in the assay with Staphylococcus aureus [2], 28 µM (≈ 15.8 µg/mL); in the assay with Enterococcus faecalis it was 28 µM (≈ 15.8 µg/mL); with Klebsiella pneumoniae, 114 µM (≈ 64.2 µg/mL); in the assay on Staphylococcus aureus [3] it was 57 µM (≈ 32.1 µg/mL); with Staphylococcus aureus [4], 28 µM (≈ 15.8 µg/mL). In addition, the MIC was 57 µM (≈ 32.1 µg/mL) in the assay on Staphylococcus aureus [5]; 57 µM (≈ 32.1 µg/mL) in the assay with Staphylococcus aureus [6]; 57 µM (≈ 32.1 µg/mL) in the assay on Staphylococcus aureus [7]; 114 µM (≈ 64.2 µg/mL) in the assay on Staphylococcus aureus [8]; 57 µM (≈ 32.1 µg/mL) in the assay on Staphylococcus aureus [9]; 114 µM (≈ 64.2 µg/mL) in the assay on Escherichia coli [10]. Moreover, the MIC with Escherichia coli [11] is 57 µM (≈ 32.1 µg/mL); with Pseudomonas aeruginosa [12] it was 57 µM (≈ 32.1 µg/mL); in the assay with Pseudomonas aeruginosa [13] it was 57 µM (≈ 32.1 µg/mL); in the assay on Pseudomonas aeruginosa [14], 28 µM (≈ 15.8 µg/mL); in the assay on Pseudomonas aeruginosa [15] it was 114 µM (≈ 64.2 µg/mL); with Pseudomonas aeruginosa [16], 114 µM (≈ 64.2 µg/mL). The MIC with Acinetobacter baumannii worked out at 57 µM (≈ 32.1 µg/mL); in the assay on Candida albicans [17], 464 µM (≈ 262 µg/mL); in the assay on Candida albicans [18] it was 15 µM (≈ 8.45 µg/mL); in the assay with Candida tropicalis, 464 µM (≈ 262 µg/mL); with Candida parapsilosis, 464 µM (≈ 262 µg/mL).

Turning to `CCOC(=O)C1=C(CN2CCN(C(=O)/C(=N/OC)c3csc(N)n3)CC2)NC(=O)NC1c1ccc(N(C)C)cc1` (configuration not stated), the MIC in the assay on Staphylococcus aureus [1] was 449 µM (≈ 256 µg/mL); in the assay on Staphylococcus aureus [2], 56 µM (≈ 32 µg/mL); in the assay with Enterococcus faecalis, 28 µM (≈ 16 µg/mL); in the assay with Klebsiella pneumoniae it was 225 µM (≈ 128 µg/mL); in the assay on Staphylococcus aureus [3], 112 µM (≈ 63.9 µg/mL); with Staphylococcus aureus [4] it was 112 µM (≈ 63.9 µg/mL). Besides, the MIC in the assay with Staphylococcus aureus [5] was 225 µM (≈ 128 µg/mL); with Staphylococcus aureus [6], 225 µM (≈ 128 µg/mL); in the assay on Staphylococcus aureus [7], 28 µM (≈ 16 µg/mL); in the assay with Staphylococcus aureus [8], 225 µM (≈ 128 µg/mL); in the assay on Staphylococcus aureus [9], 449 µM (≈ 256 µg/mL); with Escherichia coli [10], 112 µM (≈ 63.9 µg/mL). In addition, the MIC in the assay on Escherichia coli [11], with Pseudomonas aeruginosa [12], in the assay with Pseudomonas aeruginosa [13], in the assay on Pseudomonas aeruginosa [14], with Pseudomonas aeruginosa [15] and in the assay on Pseudomonas aeruginosa [16] was 225 µM (≈ 128 µg/mL) throughout. Also, the MIC with Acinetobacter baumannii stood at 56 µM (≈ 32 µg/mL); in the assay with Candida albicans [17], 412 µM (≈ 235 µg/mL); in the assay on Candida albicans [18], 52 µM (≈ 29.7 µg/mL); with Candida tropicalis, 412 µM (≈ 235 µg/mL); in the assay on Candida parapsilosis it was 412 µM (≈ 235 µg/mL).

For the origin of these results see ChEMBL document CHEMBL5505979, “Novel aminothiazoximone-corbelled ethoxycarbonylpyrimidones with antibiofilm activity to conquer Gram-negative bacteria through potential multitargeting effects” (Eur J Med Chem, 2024).
